Measurements published in patent US8551937B2, “Peptide having an extending action for half-life of object peptide in plasma” (priority 2008, dated 2013).
Like-named read-outs stand apart in the source and are kept apart here. Where a SMILES comes first, the peptide text is derived from it.

Assay: Motilin immunoreactivity concentration in plasma, half-life after intravenous administration (Example 8)
Conditions: SD, rat, in vivo, 10 nmol/kg
Method in brief: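 Male SD rats (7 weeks, n=3/group) received human motilin or derivative at 10 nmol/kg i.v. via tail vein; arterial blood was sampled up to 60 min, with EDTA and aprotinin added. Plasma motilin immunoreactivity was measured by competitive RIA using a rabbit polyclonal antibody against native motilin residues 1–12 and ^125I-[Tyr^7] human motilin tracer.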

| half-life (male, iv) [min] | Structure (SMILES) | half-life (intravenous, male rats, N = 3, read-out: T½ Mean Value) [min] |
| --- | --- | --- |
| 11.6 | CC[C@H](C)[C@H](NC(=O)[C@@H]1CCCN1C(=O)[C@@H](NC(=O)[C@@H](N)Cc1ccccc1)C(C)C)C(=O)N[C@@H](Cc1ccccc1)C(=O)N[C@H](C(=O)N[C@@H](Cc1ccc(O)cc1)C(=O)NCC(=O)N[C@@H](CCC(=O)O)C(=O)N[C@@H](CC(C)C)C(=O)N[C@@H](CCC(N)=O)C(=O)N[C@@H](CCCNC(=N)N)C(=O)N[C@H](C(=O)N[C@@H](CCC(N)=O)C(=O)N[C@@H](CCC(N)=O)C(=O)N[C@@H](CCCNC(=N)N)C(=O)N[C@@H](CCCCN)C(=O)N[C@@H](CCC(=O)O)C(=O)N[C@@H](CO)C(=O)N[C@@H](CCCCN)C(=O)N[C@@H](CCCCN)C(=O)N1CCC[C@H]1C(=O)N1CCC[C@H]1C(=O)N[C@@H](C)C(=O)N[C@@H](CCC(=O)O)C(=O)N[C@@H](CC(C)C)C(=O)N[C@@H](C)C(=O)N[C@@H](C)C(=O)N[C@@H](CC(C)C)C(=O)N[C@@H](CCCCN)C(=O)N[C@@H](C)C(=O)O)C(C)C)[C@@H](C)O [Chimeric motilin (VIII)(MG-H4)] (H-FVPIFTYGELQRVQQRKESKKPPAELAALKA-OH; N-terminus and C-terminus assumed) | – |
| 13 | CC[C@H](C)[C@H](NC(=O)[C@@H]1CCCN1C(=O)[C@@H](NC(=O)[C@@H](N)Cc1ccccc1)C(C)C)C(=O)N[C@@H](Cc1ccccc1)C(=O)N[C@H](C(=O)N[C@@H](Cc1ccc(O)cc1)C(=O)NCC(=O)N[C@@H](CCC(=O)O)C(=O)N[C@@H](CC(C)C)C(=O)N[C@@H](CCC(N)=O)C(=O)N[C@@H](CCCNC(=N)N)C(=O)N[C@H](C(=O)N[C@@H](CCC(N)=O)C(=O)N[C@@H](CCC(N)=O)C(=O)N[C@@H](CCCCN)C(=O)N[C@@H](CCCCN)C(=O)N[C@@H](C)C(=O)N[C@@H](Cc1ccc(O)cc1)C(=O)N[C@@H](CO)C(=O)N1CCC[C@H]1C(=O)N[C@@H](CC(=O)O)C(=O)N[C@@H](CCCCN)C(=O)N[C@@H](CCC(=O)O)C(=O)N[C@@H](CCCNC(=N)N)C(=O)N[C@@H](CCCCN)C(=O)N1CCC[C@H]1C(=O)N1CCC[C@H]1C(=O)N[C@@H](C)C(=O)N[C@@H](CC(C)C)C(=O)N[C@@H](CCC(N)=O)C(=O)N1CCC[C@H]1C(=O)N[C@@H](CCCNC(=N)N)C(=O)O)C(C)C)[C@@H](C)O [Chimeric motilin (XII)(MGP1)] (H-FVPIFTYGELQRVQQKKAYSPDKERKPPALQPR-OH; N-terminus and C-terminus assumed) | – |
| 13.1 | CC[C@H](C)[C@H](NC(=O)[C@@H]1CCCN1C(=O)[C@@H](NC(=O)[C@@H](N)Cc1ccccc1)C(C)C)C(=O)N[C@@H](Cc1ccccc1)C(=O)N[C@H](C(=O)N[C@@H](Cc1ccc(O)cc1)C(=O)NCC(=O)N[C@@H](CCC(=O)O)C(=O)N[C@@H](CC(C)C)C(=O)N[C@@H](CCC(N)=O)C(=O)N[C@@H](CCCNC(=N)N)C(=O)N[C@H](C(=O)N[C@@H](CCC(N)=O)C(=O)N[C@@H](CCC(N)=O)C(=O)N[C@@H](CCCCN)C(=O)N[C@@H](CCCCN)C(=O)N[C@@H](C)C(=O)N[C@@H](Cc1ccc(O)cc1)C(=O)N[C@@H](CO)C(=O)N1CCC[C@H]1C(=O)N[C@@H](CC(=O)O)C(=O)N[C@@H](CCCCN)C(=O)N[C@@H](CCC(=O)O)C(=O)N[C@@H](CCCNC(=N)N)C(=O)N[C@@H](CCCCN)C(=O)N1CCC[C@H]1C(=O)N1CCC[C@H]1C(=O)N[C@@H](C)C(=O)N[C@@H](CCCCN)C(=O)N[C@@H](CC(C)C)C(=O)N[C@@H](CCC(N)=O)C(=O)N1CCC[C@H]1C(=O)N[C@@H](CCCNC(=N)N)C(=O)O)C(C)C)[C@@H](C)O [Chimeric motilin (XIII)(MGP2)] (H-FVPIFTYGELQRVQQKKAYSPDKERKPPAKLQPR-OH; N-terminus and C-terminus assumed) | – |
| 10.5 | CC[C@H](C)[C@H](NC(=O)[C@@H]1CCCN1C(=O)[C@@H](NC(=O)[C@@H](N)Cc1ccccc1)C(C)C)C(=O)N[C@@H](Cc1ccccc1)C(=O)N[C@H](C(=O)N[C@@H](Cc1ccc(O)cc1)C(=O)NCC(=O)N[C@@H](CCC(=O)O)C(=O)N[C@@H](CC(C)C)C(=O)N[C@@H](CCC(N)=O)C(=O)N[C@@H](CCCNC(=N)N)C(=O)N[C@H](C(=O)N[C@@H](CCC(N)=O)C(=O)N[C@@H](CCC(N)=O)C(=O)N[C@@H](CCCNC(=N)N)C(=O)N[C@@H](CCCCN)C(=O)NCC(=O)N[C@@H](CCC(=O)O)C(=O)N[C@@H](CO)C(=O)N[C@@H](CCCCN)C(=O)N[C@@H](CCCCN)C(=O)N1CCC[C@H]1C(=O)N1CCC[C@H]1C(=O)N[C@@H](C)C(=O)N[C@@H](CCCCN)C(=O)N[C@@H](CC(C)C)C(=O)N[C@@H](CCC(N)=O)C(=O)N1CCC[C@H]1C(=O)N[C@@H](CCCNC(=N)N)C(=O)O)C(C)C)[C@@H](C)O [Chimeric motilin (Z)(MG-i17G)] (H-FVPIFTYGELQRVQQRKGESKKPPAKLQPR-OH; N-terminus and C-terminus assumed) | – |

More lines, now with the values behind:

| Structure (SMILES) | half-life (male, iv) [min] | half-life (intravenous, male rats, N = 3, read-out: T½ Mean Value) [min] |
| --- | --- | --- |
| CC[C@H](C)[C@H](NC(=O)[C@@H]1CCCN1C(=O)[C@@H](NC(=O)[C@@H](N)Cc1ccccc1)C(C)C)C(=O)N[C@@H](Cc1ccccc1)C(=O)N[C@H](C(=O)N[C@@H](Cc1ccc(O)cc1)C(=O)NCC(=O)N[C@@H](CCC(=O)O)C(=O)N[C@@H](CC(C)C)C(=O)N[C@@H](CCC(N)=O)C(=O)N[C@@H](CCCNC(=N)N)C(=O)N[C@H](C(=O)N[C@@H](CCC(N)=O)C(=O)N[C@@H](CCC(N)=O)C(=O)N[C@@H](CCCNC(=N)N)C(=O)N[C@@H](CCCCN)C(=O)N[C@@H](CCCCN)C(=O)N[C@@H](CCCCN)C(=O)N1CCC[C@H]1C(=O)N1CCC[C@H]1C(=O)N[C@@H](C)C(=O)N[C@@H](CCCCN)C(=O)N[C@@H](CC(C)C)C(=O)N[C@@H](CCC(N)=O)C(=O)N1CCC[C@H]1C(=O)N[C@@H](CCCNC(=N)N)C(=O)O)C(C)C)[C@@H](C)O [Chimeric motilin (W)(MG-dES)] (H-FVPIFTYGELQRVQQRKKKPPAKLQPR-OH; N-terminus and C-terminus assumed) | 5.39 | – |
| CC[C@H](C)[C@H](NC(=O)[C@@H]1CCCN1C(=O)[C@@H](NC(=O)[C@@H](N)Cc1ccccc1)C(C)C)C(=O)N[C@@H](Cc1ccccc1)C(=O)N[C@H](C(=O)N[C@@H](Cc1ccc(O)cc1)C(=O)NCC(=O)N[C@@H](CCC(=O)O)C(=O)N[C@@H](CC(C)C)C(=O)N[C@@H](CCC(N)=O)C(=O)N[C@@H](CCCNC(=N)N)C(=O)N[C@H](C(=O)N[C@@H](CCC(N)=O)C(=O)N[C@@H](CCC(N)=O)C(=O)N[C@@H](CCCCN)C(=O)N[C@@H](CCCNC(=N)N)C(=O)N[C@@H](CC(=O)O)C(=O)N[C@@H](CO)C(=O)N[C@@H](CCCNC(=N)N)C(=O)N[C@@H](CCCNC(=N)N)C(=O)N1CCC[C@H]1C(=O)N1CCC[C@H]1C(=O)N[C@@H](C)C(=O)N[C@@H](CCCCN)C(=O)N[C@@H](CC(C)C)C(=O)N[C@@H](CCC(N)=O)C(=O)N1CCC[C@H]1C(=O)N[C@@H](CCCNC(=N)N)C(=O)O)C(C)C)[C@@H](C)O [Chimeric motilin (X)(MG-17E/D)] (H-FVPIFTYGELQRVQQKRDSRRPPAKLQPR-OH) | – | 7.89 |
| CC[C@H](C)[C@H](NC(=O)[C@H](CCSC)NC(=O)[C@@H]1CCCN1C(=O)[C@@H]1CCCN1C(=O)[C@H](CCCCN)NC(=O)[C@H](CCCCN)NC(=O)[C@H](CO)NC(=O)[C@H](CCC(=O)O)NC(=O)[C@H](CCCCN)NC(=O)[C@H](CCCNC(=N)N)NC(=O)[C@H](CCC(N)=O)NC(=O)[C@H](CCC(N)=O)NC(=O)[C@@H](NC(=O)[C@H](CCCNC(=N)N)NC(=O)[C@H](CCC(N)=O)NC(=O)[C@H](CC(C)C)NC(=O)[C@H](CCC(=O)O)NC(=O)CNC(=O)[C@H](Cc1ccc(O)cc1)NC(=O)[C@@H](NC(=O)[C@H](Cc1ccccc1)NC(=O)[C@@H](NC(=O)[C@@H]1CCCN1C(=O)[C@@H](NC(=O)[C@@H](N)Cc1ccccc1)C(C)C)[C@@H](C)CC)[C@@H](C)O)C(C)C)C(=O)N[C@H](C(=O)N[C@H](C(=O)N[C@@H](CCCNC(=N)N)C(=O)O)[C@@H](C)CC)[C@@H](C)O [Chimeric motilin (X)(MG-S)] (H-FVPIFTYGELQRVQQRKESKKPPMITIR-OH; N-terminus and C-terminus assumed) | 5.25 | – |
| CC[C@H](C)[C@H](NC(=O)[C@@H]1CCCN1C(=O)[C@@H](NC(=O)[C@@H](N)Cc1ccccc1)C(C)C)C(=O)N[C@@H](Cc1ccccc1)C(=O)N[C@H](C(=O)N[C@@H](Cc1ccc(O)cc1)C(=O)NCC(=O)N[C@@H](CCC(=O)O)C(=O)N[C@@H](CC(C)C)C(=O)N[C@@H](CCC(N)=O)C(=O)N[C@@H](CCCNC(=N)N)C(=O)N[C@@H](CCCCN)C(=O)N[C@@H](CCC(=O)O)C(=O)N[C@@H](CO)C(=O)N[C@@H](CCCCN)C(=O)N[C@@H](CCCCN)C(=O)N1CCC[C@H]1C(=O)N1CCC[C@H]1C(=O)N[C@@H](C)C(=O)N[C@@H](CCCCN)C(=O)N[C@@H](CC(C)C)C(=O)N[C@@H](C)C(=O)N[C@@H](C)C(=O)N[C@@H](CC(C)C)C(=O)N[C@@H](CCCCN)C(=O)N[C@@H](C)C(=O)O)[C@@H](C)O [Chimeric motilin (XI) (MG-d12/14)] (H-FVPIFTYGELQRKESKKPPAKLAALKA-OH; N-terminus and C-terminus assumed) | 10.3 | – |
| CC[C@H](C)[C@H](NC(=O)[C@@H]1CCCN1C(=O)[C@@H](NC(=O)[C@@H](N)Cc1ccccc1)C(C)C)C(=O)N[C@@H](Cc1ccccc1)C(=O)N[C@H](C(=O)N[C@@H](Cc1ccc(O)cc1)C(=O)NCC(=O)N[C@@H](CCC(=O)O)C(=O)N[C@@H](CC(C)C)C(=O)N[C@@H](CCC(N)=O)C(=O)N[C@@H](CCCNC(=N)N)C(=O)N[C@H](C(=O)N[C@@H](CCC(N)=O)C(=O)N[C@@H](CCC(N)=O)C(=O)N[C@@H](CCCCN)C(=O)N[C@@H](CCCCN)C(=O)N[C@@H](CO)C(=O)N[C@@H](CCC(=O)O)C(=O)N[C@@H](CCCCN)C(=O)N[C@@H](CCCNC(=N)N)C(=O)N1CCC[C@H]1C(=O)N1CCC[C@H]1C(=O)N[C@@H](C)C(=O)N[C@@H](CCCCN)C(=O)N[C@@H](CC(C)C)C(=O)N[C@@H](CCC(N)=O)C(=O)N1CCC[C@H]1C(=O)N[C@@H](CCCNC(=N)N)C(=O)O)C(C)C)[C@@H](C)O [Chimeric motilin (Y)(MG-BR)] (H-FVPIFTYGELQRVQQKKSEKRPPAKLQPR-OH; N-terminus and C-terminus assumed) | 11.6 | – |
